Measured values from the kinase profiling compilation of Christmann-Franck et al. (2016).

What was measured:
Experiment in all cases: KINOMEscan competition binding
Conditions in all cases: compound 10.0 µM; call rule not given here
STK11 (human) = STK11 (human) (UniProt Q15831)
MAP4K5 (human) = MAP4K5 (human) (UniProt Q9Y4K4)
CDK2 (human) = CDK2 (human) (UniProt P24941)
RAF1 (human) = RAF1 (human) (UniProt P04049)
FRK (human) = FRK (human) (UniProt P42685)
CDK5 (human) = CDK5 (human) (UniProt Q00535)
CDK5 (human), sequence (Q00535 whole entry, looked up): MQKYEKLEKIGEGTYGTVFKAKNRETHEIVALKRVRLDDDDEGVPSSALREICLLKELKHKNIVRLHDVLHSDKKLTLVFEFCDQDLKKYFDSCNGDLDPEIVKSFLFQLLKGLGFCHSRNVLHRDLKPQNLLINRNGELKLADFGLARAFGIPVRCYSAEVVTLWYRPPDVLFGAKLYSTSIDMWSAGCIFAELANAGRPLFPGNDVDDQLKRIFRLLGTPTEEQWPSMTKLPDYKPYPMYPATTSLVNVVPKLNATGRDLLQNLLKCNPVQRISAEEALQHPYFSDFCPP

STK33 (human) = STK33 (human) (UniProt Q9BYT3)
STK33 (human), sequence (Q9BYT3 whole entry, looked up): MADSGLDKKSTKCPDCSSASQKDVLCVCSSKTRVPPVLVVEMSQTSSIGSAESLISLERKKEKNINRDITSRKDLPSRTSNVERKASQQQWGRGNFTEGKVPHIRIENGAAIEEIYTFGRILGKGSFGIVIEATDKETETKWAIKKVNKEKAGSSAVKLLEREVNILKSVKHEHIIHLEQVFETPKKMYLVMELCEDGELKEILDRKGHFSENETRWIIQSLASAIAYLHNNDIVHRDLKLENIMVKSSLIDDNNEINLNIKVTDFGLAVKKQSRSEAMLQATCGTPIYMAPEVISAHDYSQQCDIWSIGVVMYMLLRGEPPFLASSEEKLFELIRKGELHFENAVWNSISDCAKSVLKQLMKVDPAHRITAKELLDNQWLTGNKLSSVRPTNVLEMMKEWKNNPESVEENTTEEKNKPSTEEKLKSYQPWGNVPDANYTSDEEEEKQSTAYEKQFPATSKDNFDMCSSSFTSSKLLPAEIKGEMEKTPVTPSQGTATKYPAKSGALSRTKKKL

GSK3A (human) = GSK3A (human) (UniProt P49840)
GSK3A (human), sequence (P49840 whole entry, looked up): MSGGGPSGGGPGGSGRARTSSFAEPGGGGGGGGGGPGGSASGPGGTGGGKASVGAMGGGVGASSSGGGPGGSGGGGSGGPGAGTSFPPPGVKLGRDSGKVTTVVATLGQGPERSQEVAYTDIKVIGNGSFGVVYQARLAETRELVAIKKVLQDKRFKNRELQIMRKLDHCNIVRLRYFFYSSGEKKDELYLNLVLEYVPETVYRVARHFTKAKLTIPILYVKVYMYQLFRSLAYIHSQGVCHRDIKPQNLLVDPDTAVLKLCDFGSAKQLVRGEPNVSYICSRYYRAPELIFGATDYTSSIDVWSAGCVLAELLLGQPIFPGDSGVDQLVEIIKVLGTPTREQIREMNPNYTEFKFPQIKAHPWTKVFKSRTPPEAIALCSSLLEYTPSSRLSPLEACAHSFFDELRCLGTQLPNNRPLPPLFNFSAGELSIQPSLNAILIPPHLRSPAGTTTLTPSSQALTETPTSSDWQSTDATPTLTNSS

SRC (human) = SRC (human) (UniProt P12931)
EPHA3 (human) = EPHA3 (human) (UniProt P29320)
EPHA5 (human) = EPHA5 (human) (UniProt P54756)
TNNI3K (human) = TNNI3K (human) (UniProt Q59H18)
STK10 (human) = STK10 (human) (UniProt O94804)
MYLK2 (human) = MYLK2 (human) (UniProt Q9H1R3)
CLK2 (human) = CLK2 (human) (UniProt P49760)
ULK3 (human) = ULK3 (human) (UniProt Q6PHR2)
TNK1 (human) = TNK1 (human) (UniProt Q13470)
TNK1 (human), sequence (Q13470 whole entry, looked up): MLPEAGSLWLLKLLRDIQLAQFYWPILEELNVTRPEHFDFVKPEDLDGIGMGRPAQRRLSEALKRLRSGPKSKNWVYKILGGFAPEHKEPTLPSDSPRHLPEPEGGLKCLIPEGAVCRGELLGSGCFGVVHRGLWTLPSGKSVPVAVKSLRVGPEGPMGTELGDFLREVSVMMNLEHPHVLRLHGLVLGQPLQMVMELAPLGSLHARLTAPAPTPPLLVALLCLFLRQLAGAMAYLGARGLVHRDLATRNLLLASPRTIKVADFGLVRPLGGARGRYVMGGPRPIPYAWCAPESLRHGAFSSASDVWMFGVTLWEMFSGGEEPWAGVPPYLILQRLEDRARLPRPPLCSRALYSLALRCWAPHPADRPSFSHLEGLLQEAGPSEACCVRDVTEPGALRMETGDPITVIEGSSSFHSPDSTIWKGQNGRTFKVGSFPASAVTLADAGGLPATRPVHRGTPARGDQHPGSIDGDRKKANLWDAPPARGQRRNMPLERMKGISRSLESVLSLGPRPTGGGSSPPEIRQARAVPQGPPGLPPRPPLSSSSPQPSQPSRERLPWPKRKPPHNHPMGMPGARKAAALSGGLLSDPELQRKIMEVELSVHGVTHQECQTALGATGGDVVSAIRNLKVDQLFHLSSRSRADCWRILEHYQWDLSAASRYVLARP

STK38L (human) = STK38L (human) (UniProt Q9Y2H1)
BMP2K (human) = BMP2K (human) (UniProt Q9NSY1)
CSNK1D (human) = CSNK1D (human) (UniProt P48730)
CSNK1D (human), sequence (P48730 whole entry, looked up): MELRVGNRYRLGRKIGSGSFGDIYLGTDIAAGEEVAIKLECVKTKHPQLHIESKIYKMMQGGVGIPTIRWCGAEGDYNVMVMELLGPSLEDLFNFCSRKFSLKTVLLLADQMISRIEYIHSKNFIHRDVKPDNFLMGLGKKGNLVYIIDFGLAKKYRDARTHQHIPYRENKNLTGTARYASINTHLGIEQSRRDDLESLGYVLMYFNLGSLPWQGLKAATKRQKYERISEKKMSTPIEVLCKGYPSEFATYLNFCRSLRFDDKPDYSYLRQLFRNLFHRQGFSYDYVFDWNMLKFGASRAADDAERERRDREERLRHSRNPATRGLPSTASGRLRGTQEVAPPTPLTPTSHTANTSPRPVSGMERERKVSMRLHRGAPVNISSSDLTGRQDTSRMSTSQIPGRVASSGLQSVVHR

[1] = biological target: JAK2 JH1 catalytic (human) (UniProt O60674)
CSNK1E (human) = CSNK1E (human) (UniProt P49674)
CSNK1E (human), sequence (P49674 whole entry, looked up): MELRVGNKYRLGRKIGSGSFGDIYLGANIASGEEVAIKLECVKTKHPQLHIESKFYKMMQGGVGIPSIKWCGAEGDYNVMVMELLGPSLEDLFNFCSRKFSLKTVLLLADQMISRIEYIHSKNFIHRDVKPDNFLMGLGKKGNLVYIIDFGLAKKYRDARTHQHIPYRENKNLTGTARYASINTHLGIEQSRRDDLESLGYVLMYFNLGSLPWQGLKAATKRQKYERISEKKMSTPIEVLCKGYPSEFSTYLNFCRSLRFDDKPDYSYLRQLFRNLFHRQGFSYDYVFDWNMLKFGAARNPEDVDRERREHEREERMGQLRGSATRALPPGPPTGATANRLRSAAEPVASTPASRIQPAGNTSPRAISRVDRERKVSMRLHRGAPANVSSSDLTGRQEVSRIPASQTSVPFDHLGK

[2] = test system: EIF2AK4 KD2 (human), Q9P2K8 [S808G]
MAP3K11 (human) = MAP3K11 (human) (UniProt Q16584)
FGR (human) = FGR (human) (UniProt P09769)
NTRK2 (human) = NTRK2 (human) (UniProt Q16620)
RET (human) = RET (human) (UniProt P07949)
BTK (human) = BTK (human) (UniProt Q06187)
EPHA1 (human) = EPHA1 (human) (UniProt P21709)
EPHA1 (human), sequence (P21709 whole entry, looked up): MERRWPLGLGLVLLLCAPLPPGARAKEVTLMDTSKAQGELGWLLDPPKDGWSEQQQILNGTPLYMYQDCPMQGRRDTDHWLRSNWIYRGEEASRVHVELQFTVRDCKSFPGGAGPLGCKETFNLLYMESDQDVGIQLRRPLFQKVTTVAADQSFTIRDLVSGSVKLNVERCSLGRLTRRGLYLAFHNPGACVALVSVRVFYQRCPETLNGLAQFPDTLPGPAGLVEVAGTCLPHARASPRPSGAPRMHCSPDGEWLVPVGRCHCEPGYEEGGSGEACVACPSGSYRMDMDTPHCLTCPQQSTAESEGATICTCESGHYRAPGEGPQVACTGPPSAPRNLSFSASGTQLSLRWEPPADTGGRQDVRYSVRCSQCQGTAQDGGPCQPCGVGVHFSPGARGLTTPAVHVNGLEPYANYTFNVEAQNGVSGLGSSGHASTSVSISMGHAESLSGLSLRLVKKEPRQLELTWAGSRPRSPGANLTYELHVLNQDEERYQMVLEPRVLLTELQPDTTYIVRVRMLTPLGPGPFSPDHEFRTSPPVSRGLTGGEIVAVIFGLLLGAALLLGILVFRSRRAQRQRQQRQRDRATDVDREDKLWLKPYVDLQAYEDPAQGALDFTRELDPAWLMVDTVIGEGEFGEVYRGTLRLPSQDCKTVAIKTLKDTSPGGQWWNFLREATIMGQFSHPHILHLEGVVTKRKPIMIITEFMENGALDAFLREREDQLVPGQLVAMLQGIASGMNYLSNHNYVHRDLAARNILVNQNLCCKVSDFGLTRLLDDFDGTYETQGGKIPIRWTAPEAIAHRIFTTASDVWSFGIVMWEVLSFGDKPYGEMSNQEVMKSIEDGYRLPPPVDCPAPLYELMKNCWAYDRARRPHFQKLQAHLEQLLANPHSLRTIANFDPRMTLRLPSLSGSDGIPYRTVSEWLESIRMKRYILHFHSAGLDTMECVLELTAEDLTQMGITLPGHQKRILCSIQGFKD

PRKAA2 (human) = PRKAA2 (human) (UniProt P54646)
PKN2 (human) = PKN2 (human) (UniProt Q16513)
LYN (human) = LYN (human) (UniProt P07948)
ACVR2A (human) = ACVR2A (human) (UniProt P27037)
TESK1 (human) = TESK1 (human) (UniProt Q15569)
AURKC (human) = AURKC (human) (UniProt Q9UQB9)
AXL (human) = AXL (human) (UniProt P30530)

RAF1 (human), sequence (P04049 whole entry, looked up): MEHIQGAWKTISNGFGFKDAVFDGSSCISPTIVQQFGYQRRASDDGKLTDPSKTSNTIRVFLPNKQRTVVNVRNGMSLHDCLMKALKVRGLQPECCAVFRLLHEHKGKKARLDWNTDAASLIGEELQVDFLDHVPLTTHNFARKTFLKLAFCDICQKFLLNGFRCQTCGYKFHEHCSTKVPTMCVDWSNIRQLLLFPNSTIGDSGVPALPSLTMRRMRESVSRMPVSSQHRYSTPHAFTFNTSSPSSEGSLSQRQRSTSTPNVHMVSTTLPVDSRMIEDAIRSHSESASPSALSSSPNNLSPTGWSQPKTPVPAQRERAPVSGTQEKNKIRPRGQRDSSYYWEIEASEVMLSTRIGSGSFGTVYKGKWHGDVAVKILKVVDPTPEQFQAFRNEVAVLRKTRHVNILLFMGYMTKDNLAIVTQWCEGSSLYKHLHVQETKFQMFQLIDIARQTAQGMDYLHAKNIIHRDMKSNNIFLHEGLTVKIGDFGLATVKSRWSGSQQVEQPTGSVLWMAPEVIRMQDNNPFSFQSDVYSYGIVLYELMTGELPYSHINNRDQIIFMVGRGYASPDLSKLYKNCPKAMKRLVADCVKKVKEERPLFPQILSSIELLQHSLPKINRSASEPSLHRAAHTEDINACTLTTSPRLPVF
STK11 (human), sequence (Q15831 whole entry, looked up): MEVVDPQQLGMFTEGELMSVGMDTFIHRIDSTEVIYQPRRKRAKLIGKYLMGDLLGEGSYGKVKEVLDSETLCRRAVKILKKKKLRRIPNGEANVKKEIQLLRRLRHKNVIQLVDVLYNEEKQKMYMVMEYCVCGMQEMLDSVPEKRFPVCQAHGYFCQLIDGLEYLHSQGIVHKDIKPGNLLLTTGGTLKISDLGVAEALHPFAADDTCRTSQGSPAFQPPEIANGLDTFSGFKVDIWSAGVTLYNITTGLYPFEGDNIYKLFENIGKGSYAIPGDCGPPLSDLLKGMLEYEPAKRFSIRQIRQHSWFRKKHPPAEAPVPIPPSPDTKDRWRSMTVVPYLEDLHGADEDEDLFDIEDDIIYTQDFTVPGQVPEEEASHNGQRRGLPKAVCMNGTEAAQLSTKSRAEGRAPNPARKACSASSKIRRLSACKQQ

Structure (SMILES)	kinase still bound, per cent of control (STK11 (human))	kinase still bound, per cent of control (CDK2 (human))	kinase still bound, per cent of control (RAF1 (human))	kinase still bound, per cent of control (FRK (human))	kinase still bound, per cent of control (CDK5 (human))	kinase still bound, per cent of control (STK33 (human))	kinase still bound, per cent of control (GSK3A (human))	kinase still bound, per cent of control (SRC (human))	kinase still bound, per cent of control (EPHA3 (human))	kinase still bound, per cent of control (EPHA5 (human))	kinase still bound, per cent of control (TNNI3K (human))	kinase still bound, per cent of control (TNK1 (human))	kinase still bound, per cent of control (STK38L (human))	kinase still bound, per cent of control (CSNK1D (human))	kinase still bound, per cent of control (CSNK1E (human))	kinase still bound, per cent of control (FGR (human))	kinase still bound, per cent of control (RET (human))	kinase still bound, per cent of control (EPHA1 (human))	kinase still bound, per cent of control (PKN2 (human))	kinase still bound, per cent of control (ACVR2A (human))	also measured
NC(=O)Nc1sc(-c2ccc(F)cc2)cc1C(N)=O	0%	no effect (inactive)	no effect (inactive)	no effect (inactive)	no effect (inactive)	no effect (inactive)	no effect (inactive)														kinase still bound, per cent of control (MAP4K5 (human)): no effect (inactive)
Nc1ncnc2c1c(-c1cccc(O)c1)cn2C1CCNCC1	no effect (inactive)	no effect (inactive)			no effect (inactive)	no effect (inactive)		0%	no effect (inactive)	no effect (inactive)	no effect (inactive)	no effect (inactive)	no effect (inactive)	0%	0%						kinase still bound, per cent of control (STK10 (human)): 0%; kinase still bound, per cent of control (MYLK2 (human)): no effect (inactive); kinase still bound, per cent of control (CLK2 (human)): no effect (inactive); kinase still bound, per cent of control (ULK3 (human)): no effect (inactive); kinase still bound, per cent of control (BMP2K (human)): no effect (inactive); kinase still bound, per cent of control [1]: no effect (inactive); kinase still bound, per cent of control [2]: no effect (inactive); kinase still bound, per cent of control (MAP3K11 (human)): no effect (inactive)
N#Cc1ccc(-c2cnc3[nH]cc(NC(=O)c4cccnc4)c3c2)cc1			no effect (inactive)	no effect (inactive)				no effect (inactive)	no effect (inactive)	no effect (inactive)	no effect (inactive)	no effect (inactive)	no effect (inactive)			no effect (inactive)	no effect (inactive)	no effect (inactive)	no effect (inactive)	no effect (inactive)	kinase still bound, per cent of control (NTRK2 (human)): no effect (inactive); kinase still bound, per cent of control (BTK (human)): no effect (inactive); kinase still bound, per cent of control (MAP4K5 (human)): no effect (inactive); kinase still bound, per cent of control (PRKAA2 (human)): no effect (inactive); kinase still bound, per cent of control (LYN (human)): no effect (inactive); kinase still bound, per cent of control [1]: no effect (inactive); kinase still bound, per cent of control (MAP3K11 (human)): no effect (inactive)
Cc1cc(Nc2cc(N3CCN(C)CC3)nc(Sc3ccc(NC(=O)C4CC4)cc3)n2)[nH]n1	0%	no effect (inactive)	no effect (inactive)		no effect (inactive)	no effect (inactive)	no effect (inactive)				no effect (inactive)			no effect (inactive)			0%			no effect (inactive)	kinase still bound, per cent of control (BTK (human)): no effect (inactive); kinase still bound, per cent of control (MYLK2 (human)): 0%; kinase still bound, per cent of control (CLK2 (human)): no effect (inactive)
O=C1Nc2ccccc2/C1=C/c1ccc[nH]1			no effect (inactive)	no effect (inactive)			no effect (inactive)	no effect (inactive)	no effect (inactive)	no effect (inactive)	no effect (inactive)	no effect (inactive)		0%	0%	no effect (inactive)		no effect (inactive)	no effect (inactive)	no effect (inactive)	kinase still bound, per cent of control (TESK1 (human)): no effect (inactive); kinase still bound, per cent of control (LYN (human)): no effect (inactive)
Cc1ccc(O)cc1Nc1ccnc(Nc2cccc(C(N)=O)c2)n1		no effect (inactive)			no effect (inactive)			0%	0%	0%			no effect (inactive)	0%	0%	0%	0%	0%	no effect (inactive)		kinase still bound, per cent of control (AURKC (human)): no effect (inactive); kinase still bound, per cent of control (TESK1 (human)): no effect (inactive); kinase still bound, per cent of control (NTRK2 (human)): no effect (inactive); kinase still bound, per cent of control (PRKAA2 (human)): no effect (inactive); kinase still bound, per cent of control (BMP2K (human)): no effect (inactive); kinase still bound, per cent of control (AXL (human)): no effect (inactive); kinase still bound, per cent of control [2]: no effect (inactive)
